US20240122865A1, “Methods of Protecting RNA” (Pfizer Inc., priority 2021, published 2024)
pEC50: −log10 of the molar value.

What was measured:
Format in all cases: biochemical, Trichoderma atroviride
[1] = tested on: FgenL model RNA; assay: TapeStation Assay, FgenL model RNA; parameters: Conc. FgenL#1 / Conc. FgenL#2: unit not given here; conditions: for % Control N = 1 / % Control N = 2 / % Control Average: FgenL RNA, 20 mM amino acids, 50 mM CAPS pH 11, 50° C. 15 min; for % Control N = 1 / % Control N = 2: vs Time 0; for % Control Average: vs Time 0, Avg N=2; for Conc. FgenL#1 / Conc. FgenL#2: intact FgenL RNA after 15 min at 50° C.; for Conc. FgenL#1: 20 mM amino acids in 50 mM CAPS pH 11, run #1; for Conc. FgenL#2: 20 mM amino acids in 50 mM CAPS pH 11, run #2
Experimental: (§1) These assays were performed with amino acids and compared to a no-degradation baseline control to gauge degree of protection imparted by the amino acid. Multiple functional assay approaches were used where differing endpoints were measured including a droplet digital PCR (ddPCR) assay where intact RNA sequence was quantitated, a size exclusion base hydrolysis degradation assay that used a size exclusion column to determine the degree of degradation occurring to an mRNA construct, and finally, a TapeStation assay that utilizes capillary electrophoresis and optical detection to measure intact RNA. […] Affinity selection by mass spectrometry (ASMS), native electrospray ionization mass spectrometry (nESI-MS) and nuclear magnetic resonance (NMR) may be used as several complementary approaches to ascertain compound binding to RNA. The latter techniques utilize MS to measure mass of bound compound alone (ASMS), or mass of RNA and bound compound (nESI-MS). The nESI-MS and NMR studies may be conducted to provide direct analytical quantification of resulting complex via measurement of mass (nESI-MS) or chemical shifts (NMR). The ASMS experiment is conducted to determine saturation binding of the compound to RNA where resulting apparent binding constants (KD,App) may be generated. Further descriptions of the functional and binding assays are provided in the section below.
(§2) In principle, samples are loaded to the instrument where electrophoresis separates component RNA's on the basis of mass, and subsequently analyzes these optically as they travel through the capillary.
(§3) RNA samples were diluted to the appropriate concentration to fall within the linear range of detection for the RNA ScreenTape Assay. Model Chi18 or FgenL RNAs were diluted to 50 ng/μL in 50 mM CAPS buffer pH 11. Amino acid stocks were made up in 50 mM CAPS pH 11 and re-adjusted to >pH 11 after solubilization. […] The samples were aliquoted to PCR tubes for each time point (Time 0 or 15 minutes). Degradation reaction: Samples were incubated at 50° C. for 0 to 15 minutes in a thermocycler, removed at the appropriate time point and placed on ice. Time 0 samples remained on ice.

[2] = tested on: Chi18 model RNA; assay: TapeStation Assay, Chi18 model RNA; parameters: Conc. chi18#1 / Conc. chi18#2: unit not given here; conditions: for % Control N = 1 / % Control N = 2 / % Control Avg.: Chi18 RNA, 20 mM amino acids, 50 mM CAPS pH 11, 50° C. 15 min; for % Control N = 1 / % Control N = 2: vs Time 0; for % Control Avg.: vs Time 0, Avg N=2; for Conc. chi18#1 / Conc. chi18#2: intact Chi18 RNA after 15 min at 50° C.; for Conc. chi18#1: 20 mM amino acids in 50 mM CAPS pH 11, run #1; for Conc. chi18#2: 20 mM amino acids in 50 mM CAPS pH 11, run #2
Experimental: as §1, §2, §3

[3] = tested on: Chi18 mRNA construct; assay: Size Exclusion Base Hydrolysis Degradation Assay, Chi18; conditions: for T0 R1 peak area at 250 nm: Chi18 0.1 mg/mL, 25 mM amino acid, 50 mM CAPS, T=0, replicate 1; for T2 Avg, peak area as percentage of T=0 / T2 R1 peak area at 250 nm / T10 Avg, peak area as percentage of T=0 / T10 R1 peak area at 250 nm / T24 Avg, peak area as percentage of T=0 / T24 R1 peak area at 250 nm / T0 Avg, peak area as percentage of T=0: Chi18, 25 mM amino acid; for T2 Avg, peak area as percentage of T=0 / T2 R1 peak area at 250 nm / T10 Avg, peak area as percentage of T=0 / T10 R1 peak area at 250 nm / T24 Avg, peak area as percentage of T=0 / T24 R1 peak area at 250 nm: 50 mM CAPS pH 11, room temperature; for T2 Avg, peak area as percentage of T=0 / T2 R1 peak area at 250 nm: 2 hrs; for T2 R1 peak area at 250 nm / T10 R1 peak area at 250 nm / T24 R1 peak area at 250 nm: replicate 1; for T10 Avg, peak area as percentage of T=0 / T10 R1 peak area at 250 nm: 10 hrs; for T24 Avg, peak area as percentage of T=0 / T24 R1 peak area at 250 nm: 24 hrs; for T0 Avg, peak area as percentage of T=0: T=0 (reference)
Experimental: Basic assay procedure: RNA samples were diluted to 1.0 mg/mL in DNAase/RNAase free water. Amino acids were dissolved in water to a stock solution of 100 mM and a solution of 500 mM CAPS pH 11 was used. The two mRNA constructs tested were FgenL and Chi18. Each individual sample volume was 50 μL. To determine the amount of 1 M NaOH needed to adjust the final pH to 11.0 after the addition of all sample components, the sample volume was increased 100 fold (5 mL), the volume of 1 M NaOH recorded and this value was translated back down to the 50 μL sample volume.
The mRNA and amino acid were allowed to incubate for one hour prior to the addition of CAPS pH 11. All steps of the assay were conducted at room temperature.
Degradation reaction: After the CAPS addition, the samples were injected onto the Waters H-Class UPLC system to record the first timepoint, T=O. This resulting chromatogram was processed by integrating the area of absorbance at 250 nm for the mRNA construct. Immediately following this timepoint, the pH was adjusted to 11. Subsequent time points (2 hrs, 10 hrs, and 24 hrs) recorded the Absorbance Units (peak area) at 250 nm as a percentage of the peak area determined at T=O. Integration of the chromatogram for subsequent timepoints was conducted by analyzing the area of absorbance at 250 nm contained within the same time window in which the peak eluted in T=0 for the 100% intact mRNA.

[4] = biological target: Chi18 model RNA; assay: Droplet Digital Polymerase Chain Reaction (ddPCR) Assay, Chi18; conditions: percent protection, pH 11.0, 30° C., 16 hours, n = 2
Experimental: The ddPCR assays measure RNA integrity by converting intact RNA to cDNA by reverse transcription, then performing digital PCR in thousands of nanoliter-sized droplets for each sample. PCR is performed within each droplet, which allows for more sensitive detection of subtle changes in RNA concentration compared to traditional PCR or qPCR. Additionally, primers/probes specific to the 5′ end of the RNA/cDNA transcript(s) are used to assess fragment integrity—e.g. degraded RNA will have fewer 5′ positive droplets. The BioRad QX200 Droplet Digital PCR System was used for the ddPCR workflow.
Basic assay procedure: RNA samples (Chi18 or FgenL fragments) were diluted to 25 fg/μL or 10 fg/μL, respectively, in 50 mM […] buffer pH 11.0. Amino acid stocks were made up in 50 mM CAPS buffer, pH 11.0 and subsequently re-adjusted to pH 11.0, post solubilization. Amino acid stocks were tested in a dose-response format to determine EC50. An amino acid dilution plate containing a ˜300 mM (or appropriate) top-concentration of amino acid in 50 mM CAPS buffer was serially (half-log) diluted for 10 times. 0.6 μL of this compound dilution plate was spotted into a 96-well PCR plate (Thermo). Sample RNAs were added (6 μL) and incubated with test amino acid as described below.
Degradation reaction: Treated RNAs were incubated for 16 hours at 30° C. for Chi18 samples or 44° C. for FgenL samples. Upon completion of the degradation reaction, cDNA was made from the intact RNA by Reverse Transcription and ddPCR run for each sample (96 well plates). Positive 5′ droplet values were divided by the total accepted droplet values for each sample and a ratio value generated for each sample.
EC50 was determined by using a four parameter logistic equation: Y=A+((B−A)/(1+(C/X)D)); where Y is percent protection, X is compound concentration, A and B are minimum and maximum asymptotes, respectively, C is EC50, and D is Hill slope.

Compound	% Control N = 1 [1] [%]	% Control N = 2 [1] [%]	% Control Average [1] [%]	Conc. FgenL#1 [1]	Conc. FgenL#2 [1]	% Control N = 1 [2] [%]	% Control N = 2 [2] [%]	% Control Avg. [2] [%]	Conc. chi18#1 [2]	Conc. chi18#2 [2]	T0 R1 peak area at 250 nm [3]	T2 Avg, peak area as percentage of T=0 [3] [%]	T2 R1 peak area at 250 nm [3]	T10 Avg, peak area as percentage of T=0 [3] [%]	T10 R1 peak area at 250 nm [3]	T24 Avg, peak area as percentage of T=0 [3] [%]	T24 R1 peak area at 250 nm [3]	T0 Avg, peak area as percentage of T=0 [3] [%]	pEC50 [4]
NC(=O)CC[C@H](N)C(=O)O [Glutamine]	29.0	10.3	19.6	10	3.57	15.9	17.8	16.8	8.46	9.42	25301	51.1	10030	0.0	0	0.0	0	100.0	2.06
N[C@@H](CCC(=O)N[C@@H](CS)C(=O)NCC(=O)O)C(=O)O [Glutathione]	42.9	35.7	39.3	14.8	12.4	29.3	26.7	28.0	15.6	14.1	13157	48.7	7747	0.0	0	0.0	0	100.0	< 1.52
NCC(=O)O [Glycine]	39.4	37.2	38.3	13.6	12.9	42.0	51.4	46.7	22.4	27.2	32571	69.6	21950	0.0	0	0.0	0	100.0	1.82
N[C@@H](Cc1c[nH]cn1)C(=O)O [Histidine]	4.2	3.7	4.0	1.46	1.3	3.0	3.2	3.1	1.58	1.68	27170	152.8	14612	2.8	1391	0.0	0	100.0	< 1.52
O=C(O)[C@@H]1C[C@@H](O)CN1 [Hydroxyproline]	14.8	10.7	12.8	5.12	3.73	17.3	17.3	17.3	9.2	–	13659	76.2	8540	34.2	3280	0.0	0	100.0	< 1.52
CC[C@H](C)[C@H](N)C(=O)O [Isoleucine]	12.2	9.5	10.8	4.22	3.28	19.3	24.2	21.8	10.3	12.8	15361	63.2	7533	33.8	4699	0.0	0	100.0	< 1.72
CC(C)C[C@H](N)C(=O)O [Leucine]	24.3	16.9	20.6	8.37	5.85	30.8	31.9	31.4	16.4	16.9	43979	60.6	23370	26.2	10474	0.0	0	100.0	< 1.60
